Experimental data as given in a compilation of properties of binary mixtures (doi:10.1021/acs.jced.1c00924).

Experiment: xn = mol fraction of the nth substance listed
Details: 100 kPa

CCOP(=O)([O-])OCC.CC[n+]1ccn(C)c1 + CCO
viscosity [mPa·s]
Details | 293.15 K | 298.15 K | 303.15 K | 308.15 K | 313.15 K | 318.15 K | 323.15 K | 328.15 K | 333.15 K | 338.15 K
x1 = 0.1002 | 3.82 | 3.46 | 3.1 | 2.8 | 2.58 | 2.39 | 2.28 | – | 2.05 | 1.94
x1 = 0.1992 | 8.71 | 7.58 | 6.67 | 5.96 | 5.38 | 4.92 | 4.57 | – | 4.06 | 3.86
x1 = 0.2987 | 18.6 | 15.84 | 13.57 | 11.74 | 10.35 | 9.23 | 8.34 | 7.65 | 7 | 6.48
x1 = 0.4007 | 35.9 | – | – | 20.9 | 18 | 15.6 | 13.64 | 12.11 | – | 9.9
x1 = 0.5007 | 65.5 | 52 | 41.8 | 34.4 | 28.6 | 24 | 20.8 | 18.1 | 15.82 | 13.95
x1 = 0.5993 | 106.8 | 83 | 64.6 | 51.6 | 41.6 | 34.2 | 28.8 | – | 20.8 | 18.1
x1 = 0.7003 | – | – | 102.1 | – | 63.3 | 50.3 | – | 33.5 | 28.1 | –
x1 = 0.8 | 256 | 187 | – | 107.6 | 82.5 | 65.4 | 52.6 | 42.7 | 35 | 29.3
x1 = 0.8985 | – | 271 | – | 146.8 | 112.5 | – | 68.7 | 54.6 | 44.5 | 36.5
x1 = 1 | – | 397 | 285 | 209 | – | 117.2 | 91.7 | 71.2 | 57.3 | 46.2

CCO + CCOP(=O)([O-])OCC.CC[n+]1ccn(C)c1
x2 = 0
Details | viscosity [mPa·s]
293.15 K | 1.18
298.15 K | 1.11
303.15 K | 0.98
308.15 K | 0.89
313.15 K | 0.82
323.15 K | 0.69
328.15 K | 0.65
333.15 K | 0.6
338.15 K | 0.56
